Data: patent US20090239839A1, “RECEPTOR ANTAGONIST” (TAKEDA PHARMACEUTICAL COMPANY LIMITED, priority 2003, published 2009)

Legend:
Type in all cases: in vivo
Wistar male rat [1] = assay: Pancreatic glucagon secretion promoting activity of RFRP (blood glucagon and insulin in rat); conditions: RFRP-1 intravenous; for blood glucagon concentration: vs physiological saline group
Source text: (§1) In the figure, (-∘-) represents a blood glucagon concentration of a physiological saline administration group, (-▴-) represents a blood glucagon concentration of an RFRP-1 1 nmol/kg administration group, and (-▪-) represents a blood glucagon concentration of an RFRP-1 10 nmol/kg administration group.
as §1, with “insulin” for “glucagon”, “group. A value indicates mean±standard deviation (mean±SE) (n=4).” for “group.”
In order to study mechanism of blood glucose concentration increasing activity of RFRP-1, influence of RFRP-1 on a blood concentration of glucagon and insulin which are known as a hormone imparting a variation to a blood glucose concentration was studied. A mature Wistar male rat (weight 310 to 350 g at operation) was operated for collecting blood under free moving. Overnight after operation, 300 μl of a blood was collected using a tuberculin injection syringe having a dose of 1 ml and a 25 gauge injection needle (both Telmo) before administration of RFRP-1. In order to prevent blood coagulation, 3 μl of a 300 KIU/ml aprotinin solution containing 3 mg/ml EDTA had been placed into an injection syringe in advance. An Otsuka physiological saline or RFRP-1 dissolved in a physiological saline (80 nmol/mL) was intravenously administered through a tube at 1 mL/Kg. After 1, 3, 5 and 15 minutes from initiation of intravenous administration, each 300 μl of blood was collected from a jugular vein. The collected blood was centrifuged (13,000 rpm, 5 minutes) using a minor amount high speed cooling centrifuge (MR-150, Tommy Seiko), and the supernatant (plasma) was recovered.

Wistar male rat [2] = assay: Amnesia promoting activity of RFRP (cued fear conditioning, ventricle administration); conditions: RFRP-1 3 nmol into a ventricle, on 2 day (48 hours after training), sound stimulation
Description: FIG. 4 indicates a ratio of freezing in a sound clue when RFRP-1 (-□-) and a physiological saline (-∘-) are administered in a ventricle. An ordinate axis indicates freezing (%) of one day and two day after administration, respectively, expressed by mean±standard error.
Since an RFRP nerve is projected on amygdaloid complex, in order to study involvement of RFRP in amygdaloid complex-dependent memory•learning ability, influence under cued fear conditioning due to ventricle administration of RFRP-1 was studied. A mature Wistar male rat (weight 280 to 320 g at operation) was anesthetized with 50 mg/kg of pentobarbital by intraperitoneal administration, and a rat was fixed in a brain localization apparatus. A tooth cutting bar was set lower by 3.3 mm from an interoralline. A cranial bone was exposed, and a hole was opened in a bone using a dental drill in order to embed a guide cannulae AG-12 (internal diameter 0.4 mm, external diameter 0.5 mm, Eicom) in a ventricle. In addition, an anchor screw was embedded in four places at a periphery thereof. A stainless guide cannulae AG-12 was inserted so that its tip was positioned at an upper part of a side ventricle. A localization coordinate was set to be AP: −0.8 mm, L: 1.5 mm, H, 4.5 mm from a Blegma according to Atlas of Paxinos and Watson (1986). […]

Wistar male rat [3] = assay: Blood glucose concentration increasing activity of RFRP (intravenous administration to rat); conditions: RFRP-1 10 nmol/kg intravenous, 5 minutes and 15 minutes after administration, vs physiological saline group
Source text: In the figure, (-∘-) represents a blood glucose concentration of a physiological saline administration group, (-▴-) represents a blood glucose concentration of an RFRP-1 1 nmol/kg administration group, and (-▪-) represents a blood concentration of an RFRP-1 10 nmol/kg administration group.
As RFRP, human RFRP-1 (37 amino acids) consisting of an amino acid sequence of 56th (Ser) to 92nd (Phe) of an amino acid sequence represented by SEQ ID No.: 4. Hereinafter, this peptide is abbreviated as RFRP-1.
In order to study influence of peripheral administration of RFRP-1 on a blood glucose concentration, operation for collecting blood under free moving was performed. A mature Wistar male rat (weight 310 to 350 g at operation) was anesthetized with 50 mg/kg of pentobarbital by intraperitoneal administration. The rat was fixed on an anatomic pad in a supine position, and a left jugular vein was exposed. […]
Overnight after operation, 300 μl of blood was collected using a tuberculin injection syringe having a dose of 1 ml and a 25 gauge injection needle (both Telmo) before administration of RFRP-1. […] A blood glucose concentration was measured using Fuji Drichem 3500 (FUJIFILM).

RFRP-1: human RFRP-1 (37 amino acids) consisting of an amino acid sequence of 56th (Ser) to 92nd (Phe) of SEQ ID No.: 4 (SLNFEELKDWGPKNVIKMSTPAVNKMPHSFANLPLRF; Human)
blood insulin concentration (Wistar male rat [1]): a variation due to administration of RFRP-1 was not recognized | blood glucagon concentration (Wistar male rat [1]; 5 minutes after administration): significant (p<0.01) increase was continued | blood glucagon concentration (Wistar male rat [1]; two minutes after administration): significant (p<0.01) increase in a blood glucagon concentration was recognized | rate of freezing (Wistar male rat [2]): 35.5% | blood glucose concentration (Wistar male rat [3]): significant (p<0.05, n=4) activity of increasing a blood glucose concentration
